Measurements: patent US20240270741A1 (Cogent Biosciences, Inc., priority 2023, published 2024)

molecular target: FGFR2 (Homo sapiens, UniProt P21802); test: FGFR wild type enzyme assay (HTRF KinEASE-TK), FGFR2; conditions: Enz FGFR2 (nM), FGFR2 wild type enzyme assay
Sequence (P21802 399-821 limits assumed): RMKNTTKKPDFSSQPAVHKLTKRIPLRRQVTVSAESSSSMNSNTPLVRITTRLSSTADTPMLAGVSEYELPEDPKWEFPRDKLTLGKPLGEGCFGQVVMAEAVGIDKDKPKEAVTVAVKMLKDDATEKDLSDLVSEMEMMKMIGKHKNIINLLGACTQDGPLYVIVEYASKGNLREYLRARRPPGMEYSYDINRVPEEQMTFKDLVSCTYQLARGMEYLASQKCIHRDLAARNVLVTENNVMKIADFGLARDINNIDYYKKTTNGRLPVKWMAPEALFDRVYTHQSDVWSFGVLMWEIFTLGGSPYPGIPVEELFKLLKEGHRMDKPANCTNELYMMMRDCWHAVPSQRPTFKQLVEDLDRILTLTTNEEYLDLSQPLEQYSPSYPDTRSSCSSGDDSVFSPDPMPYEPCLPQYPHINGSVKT

Row | Compound | IC50 [nM]
1 | N#Cc1ccccc1Sc1cc(-c2cnn(CCO)c2)cn2ncc(C#N)c12 [Example 566, 4-((2-cyanophenyl)thio)-6-(1-(2-hydroxyethyl)-1H-pyrazol-4-yl)pyrazolo[1,5-a]pyridine-3-carbonitrile] | 2
2 | C[C@@H](O)Cn1cc(-c2cc(Sc3ccccc3C#N)c3c(C#N)cnn3c2)cn1 [Example 567, (R)-4-((2-cyanophenyl)thio)-6-(1-(2-hydroxypropyl)-1H-pyrazol-4-yl)pyrazolo[1,5-a]pyridine-3-carbonitrile] | 1
3 | C[C@H](O)Cn1cc(-c2cc(Sc3ccccc3C#N)c3c(C#N)cnn3c2)cn1 [Example 568, (S)-4-((2-cyanophenyl)thio)-6-(1-(2-hydroxypropyl)-1H-pyrazol-4-yl)pyrazolo[1,5-a]pyridine-3-carbonitrile] | 1
4 | N#Cc1ccccc1Sc1cc(-c2cn[nH]c2)cn2ncc(C#N)c12 [Example 569, 4-((2-cyanophenyl)thio)-6-(1H-pyrazol-4-yl)pyrazolo[1,5-a]pyridine-3-carbonitrile] | 2
5 | C[C@H](O)CCn1cc(-c2cc(Sc3ccccc3C#N)c3c(C#N)cnn3c2)cn1 [Example 570] | 1
6 | C[C@@H](O)CCn1cc(-c2cc(Sc3ccccc3C#N)c3c(C#N)cnn3c2)cn1 [Example 571, (R)-4-((2-cyanophenyl)thio)-6-(1-(3-hydroxybutyl)-1H-pyrazol-4-yl)pyrazolo[1,5-a]pyridine-3-carbonitrile] | 1
7 | CCn1cc(-c2cc(Sc3ccccc3C#N)c3c(C#N)cnn3c2)cn1 [Example 572, 4-((2-cyanophenyl)thio)-6-(1-ethyl-1H-pyrazol-4-yl)pyrazolo[1,5-a]pyridine-3-carbonitrile] | 1
8 | N#Cc1ccccc1Sc1cc(-c2cnn(CC(=O)O)c2)cn2ncc(C#N)c12 [Example 573, 2-(4-(3-cyano-4-((2-cyanophenyl)thio)pyrazolo [1,5-a]pyridin-6-yl)-1H-pyrazol-1-yl)acetic acid] | 4
9 | CC(=O)N[C@H]1CC[C@H](n2cc(-c3cc(Sc4ccccc4C#N)c4c(C#N)cnn4c3)cn2)CC1 [Example 574, N-((1r,4r)-4-(4-(3-cyano-4-((2-cyanophenyl)thio)pyrazolo [1,5-a]pyridin-6-yl)-1H-pyrazol-1-yl)cyclohexyl)acetamide] | 1
10 | CNc1ccc(-c2cc(Sc3ccc(F)cc3C#N)c3c(C#N)cnn3c2)cn1 [Example 575, 4-((2-cyano-4-fluorophenyl)thio)-6-(6-(methylamino)pyridin-3-yl)pyrazolo[1,5-a]pryidine-3-carbonitrile] | 5
11 | Cc1cccc(Sc2cc(-c3cnn(C)c3)cn3ncc(C#N)c23)c1C#N [Example 576, 4-((2-cyano-3-methylphenyl)thio)-6-(1-methyl-1H-pyrazol-4-yl)pyrazolo[1,5-a]pyridine-3-carbonitrile] | 7
12 | N#Cc1cnn2cc(-c3cn([C@H]4CCCNC4)nc3F)cc(Sc3ncccc3F)c12 [Example 577, (S)-6-(3-fluoro-1-(piperidin-3-yl)-1H-pyrazol-4-yl)-4-((3-fluoropyridin-2-yl)thio)pyrazolo[1,5-a]pyridine-3-carbonitrile] | 7
13 | CC(C)(CO)n1cc(-c2cc(Sc3ccccc3C#N)c3c(C#N)cnn3c2)cn1 [Example 578, 4-((2-cyanophenyl)thio)-6-(1-(1-hydroxy-2-methylpropan-2-yl)-1H-pyrazol-4-yl)pyrazolo[1,5-a]pyridine-3-carbonitrile] | 2
14 | CO[C@H]1CC[C@H](n2ncc(-c3cc(Sc4ccc(F)cc4C#N)c4c(C#N)cnn4c3)c2C)CC1 [Example 579, 4-((2-cyano-4-fluorophenyl)thio)-6-(1-((1r,4r)-4-methoxycyclohexyl)-5-methyl-1H-pyrazol-4-yl)pyrazolo[1,5-a]pyridine-3-carbonitrile] | 1.5
15 | CN(C)c1ccc(-c2cc(Sc3ccccc3C#N)c3c(C#N)cnn3c2)cn1 [Example 580, 4-((2-cyanophenyl)thio)-6-(6-(dimethylamino)pyridin-3-yl)pyrazolo[1,5-a]pyridine-3-carbonitrile] | 1
16 | N#Cc1ccccc1Sc1cc(-c2cnn([C@@H]3CCNC3)c2)cn2ncc(C#N)c12 [Example 581, (R)-4-((2-cyanophenyl)thio)-6-(1-(pyrrolidin-3-yl)-1H-pyrazol-4-yl)pyrazolo[1,5-a]pyridine-3-carbonitrile] | 0.5
17 | CC(=O)N1CC[C@@H](n2cc(-c3cc(Sc4ccccc4C#N)c4c(C#N)cnn4c3)cn2)C1 [Example 582, (R)-6-(1-(1-acetylpyrrolidin-3-yl)-1H-pyrazol-4-yl)-4-((2-cyanophenyl)thio)pyrazolo [1,5-a]pyridine-3-carbonitrile] | 1
18 | N#Cc1ccccc1Sc1cc(-c2cnn(CCCO)c2)cn2ncc(C#N)c12 [Example 583, 4-((2-cyanophenyl)thio)-6-(1-(3-hydroxypropyl)-1H-pyrazol-4-yl)pyrazolo[1,5-a]pyridine-3-carbonitrile] | 1

Row | Compound | IC50 [nM]
19 | N#Cc1ccccc1Sc1cc(-c2cnn(C(F)F)c2)cn2ncc(C#N)c12 [Example 584, 4-((2-cyanophenyl)thio)-6-(1-(difluoromethyl)-1H-pyrazol-4-yl)pyrazolo[1,5-a]pyridine-3-carbonitrile] | 6
20 | N#Cc1ccccc1Sc1cc(-c2cnn(C3CCOC3)c2)cn2ncc(C#N)c12 (stereo not drawn) [Example 585, 4-((2-cyanophenyl)thio)-6-(1-(tetrahydrofuran-3-yl)-1H-pyrazol-4-yl)pyrazolo[1,5-a]pryidine-3-carbonitrile] | 1
21 | N#Cc1cc(F)ccc1Sc1cc(-c2ccc(N3CCC(O)CC3)nc2)cn2ncc(C#N)c12 [Example 586, 4-((2-cyano-4-fluorophenyl)thio)-6-(6-(4-hydroxypiperidin-1-yl)pyridin-3-yl)pyrazolo[1,5-a]pyridine-3-carbonitrile] | 1
22 | Cn1ccc(-c2cc(Sc3ccc(F)cc3C#N)c3c(C#N)cnn3c2)cc1=O [Example 587, 4-((2-cyano-4-fluorophenyl)thio)-6-(1-methyl-2-oxo-1,2-dihydropyridin-4-yl)pyrazolo[1,5-a]pyridine-3-carbonitrile] | 43
23 | N#Cc1ccccc1Sc1cc(-c2cnn(CC(F)(F)F)c2)cn2ncc(C#N)c12 [Example 588] | 2
24 | Cc1c(-c2cc(Sc3ccccc3C#N)c3c(C#N)cnn3c2)cnn1C1CCN(C(=O)C(C)(C)O)CC1 [Example 589, 4-((2-cyanophenyl)thio)-6-(1-(1-(2-hydroxy-2-methylpropanoyl)piperidin-4-yl)-5-methyl-1H-pyrazol-4-yl)pyrazolo[1,5-a]pyridine-3-carbonitrile] | 1
25 | C[C@@H](O)C(=O)N1CCC[C@H](n2cc(-c3cc(Sc4ccccc4C#N)c4c(C#N)cnn4c3)cn2)C1 [Example 590, 4-((2-cyanophenyl)thio)-6-(1-((S)-1-((R)-2-hydroxypropanoyl)piperidin-3-yl)-1H-pyrazol-4-yl)pyrazolo[1,5-a]pyridine-3-carbonitrile] | 0.5
26 | N#Cc1ccccc1Sc1cc(-c2cnn([C@@H]3CCNC(=O)C3)c2)cn2ncc(C#N)c12 [Example 591, (R)-4-((2-cyanophenyl)thio)-6-(1-(2-oxopiperidin-4-yl)-1H-pyrazol-4-yl)pyrazolo[1,5-a]pyridine-3-carbonitrile] | 0.4
27 | N#Cc1ccccc1Sc1cc(-c2cnn([C@H]3CCNC(=O)C3)c2)cn2ncc(C#N)c12 [Example 592, (S)-4-((2-cyanophenyl)thio)-6-(1-(2-oxopiperidin-4-yl)-1H-pyrazol-4-yl)pyrazolo[1,5-a]pyridine-3-carbonitrile] | 1
28 | CC1(C)CC[C@H](n2cc(-c3cc(Sc4ccccc4C#N)c4c(C#N)cnn4c3)cn2)CN1 [Example 593, (S)-4-((2-cyanophenyl)thio)-6-(1-(6,6-dimethylpiperidin-3-yl)-1H-pyrazol-4-yl)pyrazolo[1,5-a]pyridine-3-carbonitrile] | 1
29 | CC1(C)CC[C@@H](n2cc(-c3cc(Sc4ccccc4C#N)c4c(C#N)cnn4c3)cn2)CN1 [Example 594, (R)-4-((2-cyanophenyl)thio)-6-(1-(6,6-dimethylpiperidin-3-yl)-1H-pyrazol-4-yl)pyrazolo[1,5-a]pyridine-3-carbonitrile] | 1
30 | N#Cc1cc(F)ccc1Sc1cc(-c2ccc(N3CCNCC3)nc2)cn2ncc(C#N)c12 [Example 595, 4-((2-cyano-4-fluorophenyl)thio)-6-(6-(piperazin-1-yl)pyridin-3-yl)pyrazolo[1,5-a]pyridine-3-carbonitrile] | 15
31 | CN(CC(O)CO)c1ccc(-c2cc(Sc3ccc(F)cc3C#N)c3c(C#N)cnn3c2)cn1 (stereo not drawn) [Example 596, 4-((2-cyano-4-fluorophenyl)thio)-6-(6-((2,3-dihydroxypropyl)(methyl)amino)pyridin-3-yl)pyrazolo[1,5-a]pyridine-3-carbonitrile] | 1
32 | Cc1cccc(C#N)c1Sc1cc(-c2cnn(C)c2)cn2ncc(C#N)c12 [Example 597, 4-((2-cyano-6-methylphenyl)thio)-6-(1-methyl-1H-pyrazol-4-yl)pyrazolo[1,5-a]pryidine-3-carbonitrile] | 30
33 | CN(C)CCn1cc(-c2cc(Sc3ccccc3C#N)c3c(C#N)cnn3c2)cn1 [Example 598, 4-((2-cyanophenyl)thio)-6-(1-(2-(dimethylamino)ethyl)-1H-pyrazol-4-yl)pyrazolo[1,5-a]pryidine-3-carbontrile] | 1
34 | N#Cc1ccccc1Sc1cc(-c2cnn([C@H]3CCCC[C@H]3O)c2)cn2ncc(C#N)c12 [Example 599, 4-((2-cyanophenyl)thio)-6-(1-((1S,2R)-2-hydroxycyclohexyl)-1H-pyrazol-4-yl)pyrazolo[1,5-a]pyridine-3-carbonitrile] | 2
35 | CC(=O)N1CCN(c2nnc(-c3cc(Sc4ccccc4C#N)c4c(C#N)cnn4c3)s2)CC1 [Example 600, 6-(5-(4-acetylpiperazin-1-y)-1,3,4-thiadiazol-2-yl)-4-((2-cyanophenyl)thio)pyrazolo [1,5-a]pyridine-3-carbonitrile] | 6
36 | CC(=O)N1CCN(c2ncc(-c3cc(Sc4ccccc4C#N)c4c(C#N)cnn4c3)o2)CC1 [Example 601, 6-(2-(4-acetylpiperazin-1-yl)oxazol-5-yl)-4-((2-cyanophenyl)thio)pyrazolo [1,5-a]pyridine-3-carbonitrile] | 53
